Source: publication PMC7948648 (The Journal of Biological Chemistry, 2021)

What was measured:
PARP1 = tested on: T1, PARP1; set-up: method as in PMID 28001384; conditions: selectivity PARP1 over TNKS1; cited from earlier work
T1 construct: To assess if these observations extend to endogenous cellular settings; endogenous in cells; host or cells: NCI-H1048 cell lysate

[1] = clinical dose of 1 mg once a day; cited from earlier work
TNKS1 = test: Biotin probe competition pulldown in NCI-H1048 cell lysate, Western blot for TNKS1; conditions: talazoparib versus olaparib, 30 min pretreatment, biotin probes
Method: Proteins bound to streptavidin were released and subjected to Western blot analysis for either PARP1 (top) or TNKS1 (bottom).
Lysate was then spun at 1500 rpm for 3 min, and the soluble fraction was transferred to a new tube on ice.
Conjugated beads were washed three times with wash buffer (50 mM Hepes [Fisher Scientific AAJ60712AK], 150 mM NaCl [Invitrogen, AM9759], and 1% nonyl phenoxypolyethoxylethanol [Fisher Scientific NC9168253]) rotating for 3 min. All PARP inhibitor pulldowns were from 1 mg/ml of protein lysate.

[2] = molecular target: the molecule itself; test: crystal structure; TNKS1 ART domain, apo and with talazoparib, olaparib, niraparib or veliparib; sitting-drop vapor diffusion at 4 °C; several crystal forms with multiple molecules in the asymmetric unit

In the case of `CN(C)CC(=O)Nc1ccc2[nH]c(=O)c3ccccc3c2c1` [PJ34], the “fold lower IC50 for PARP1 than for TNKS1” value (PARP1) is listed as “over 25 fold”.

For `Cn1ncnc1[C@H]1c2n[nH]c(=O)c3cc(F)cc(c23)N[C@@H]1c1ccc(F)cc1` [Talazoparib, talazoparib], the free plasma concentration [1] is listed as ~17 nM and the “greater ability to prevent binding to TNKS1” value (TNKS1) is listed as “approximately 1000 fold”.

B1: tankyrase1 (TNKS1) ART domain (residues 1104-1314) (domain or fragment, UniProt O95271 1104-1314, looked up)
chain: QGTILLDLAPEDKEYQSVEEEMQSTIREHRDGGNAGGIFNRYNVIRIQKVVNKKLRERFCHRQKEVSEENHNHHNERMLFHGSPFINAIIHKGFDERHAYIGGMFGAGIYFAENSSKSNQYVYGIGGGTGCPTHKDRSCYICHRQMLFCRVTLGKSFLQFSTMKMAHAPPGHHSVIGRPSVNGLAYAEYVIYRGEQAYPEYLITYQIMKPE
notes: tankyrase1 (TNKS1, PARP5a), ART domain, residues 1104-1314; also called PARP5a; not shown: His6, N-terminal, cleaved
B1: binds [2].
